Source: EP0535804A1, “Peptide compounds” (HITACHI CHEMICAL CO., LTD., priority 1991, dated 1993)
Ends that are not written are not given here.

Experiments:
human endothelin 1 [1] = experiment: Binding activity of radioactive ligand (125I-human endothelin 1) to peptide resin; conditions: 125I-human endothelin 1 solution 0.131 ng/ml, 2 hours at room temperature, gamma counter
Experimental: After blocking the sites susceptible to adsorption on the peptide resin obtained in (2) above with 0.2% skim milk solution, the peptide was suspended in 100 ml of ^1251-human endothelin 1 (specific activity: 74 TBq- /mmol) solution (0.131 ng/ml) (prepared by dissolving in Dalbecco's phosphate buffered biological saline containing 0.1 % skim milk and 0.1 % Tween) and allowed to react for 2 hours at room temperature. Following the binding reaction, the peptide resin was thoroughly washed with washing buffer (Dalbecco's phosphate buffered biological saline containing 0.1 % Tween), and the radioactivity bound to the peptide resin was measured with a gamma counter.

human endothelin 1 [2] = experiment: Enzymeimmuno competitive inhibition assay of endothelin 1 binding to peptide resin; conditions: 3 hours at room temperature
Experimental: After blocking those sites susceptible to nonspecific adsorption on the peptide resin obtained in (2) above with 0.2% skim milk solution, the peptide resin was immersed in 200 µl of human endothelin 1 solution (0.2 µg/ml) (prepared by dissolving in Dalbecco's phosphate buffered biological saline containing 0.1% skim milk and 0.1 % Tween 20). After allowing to react for 3 hours at room temperature while stirring gently, the resulting solution was used as sample solution (i).
Separate from the above, the wells of an ELISA microplate were coated overnight at 4°C with 200 µl of human endothelin 1 solution (1 wg/ml). […]
After washing the human endothelin 1 coated plate (ii) with washing buffer (Dalbecco's phosphate buffered biological saline containing 0.1% Tween), 50 µl of sample solution (i) was added followed immediately by the addition of 200 µl of anti-human endothelin 1 rabbit antibody solution (using Dalbecco's phosphate buffered biological saline containing 0.1% skim milk and 0.1% Tween as the dilution buffer). […] After similarly washing the plate and adding 200 µl of substrate solution (1 mg p-nitrophenyl phosphate/ml 1M diethanolamine buffer), the amount of p-nitrophenol released by the labelled enzyme present on the plate was determined by measuring the absorbance at 405 nm. […]

Q: Which “amount of human endothelin 1 bound to the peptide resin” value (human endothelin 1 [1]) does the source give for KRGFPP here?
A: Its value is 5.18 pg.

Q: And the inhibitory activity (human endothelin 1 [2]; decrease of endothelin 1 antigen activity after binding to peptide resin pins, 0.2 µg/ml)?
A: Its inhibitory activity is 21.1%.

Q: And the “antigen activity of human endothelin 1 in said sample solution (i)” value (human endothelin 1 [2]; remaining relative to before the binding reaction to the peptide resin pins, endothelin 1 solution 0.2 µg/ml, 200 µl)?
A: The value was 78.9%.
